Values after ≈ are worked out from the molar mass of the structure shown. Like-named read-outs stand apart in the source and are kept apart here.
Assays:
[1] = target: ecFabI (Escherichia coli (strain K12), UniProt P0AEK4); assay: ecFabI inhibition kinetics; assay type: biochemical
[2] = tested on: E. coli MG1655 ΔacrAB; assay: microbe, parasite or virus in culture; assay type: cell-based, Escherichia coli; conditions: for MIC: Escherichia coli, MG1655
[3] = tested on: MRSA strain BAA1762; assay: Neutropenic mouse thigh infection model; assay type: in vivo, Swiss Webster mice
[4] = in vivo; conditions: female, ICR, mouse, ip, 200 mg/kg
[5] = tested on: S. aureus RN4220; assay: MIC microbroth dilution, S. aureus RN4220; assay type: cell-based, Staphylococcus aureus; conditions: for MIC: Staphylococcus aureus; for Staphylococcus aureus MIC (μg/mL) RN4220: 2-pyridones table
[6] = target: M. tuberculosis enoyl-ACP reductase InhA (Mycobacterium tuberculosis (strain ATCC 25618 / H37Rv), UniProt P9WGR1); assay: InhA inhibition kinetics; assay type: biochemical
[7] = tested on: M. tuberculosis H37Rv; assay: MIC microbroth dilution, M. tuberculosis H37Rv; assay type: cell-based; conditions: Mycobacterium tuberculosis, H37RV, read-out: Mycobacterium tuberculosis MIC (μg/mL) H37Rv
[8] = target: saFabI (Staphylococcus aureus (strain MRSA252), UniProt Q6GI75); assay: saFabI inhibition kinetics; assay type: biochemical
[9] = tested on: F. tularensis LVS; assay: microbe, parasite or virus in culture; assay type: cell-based; conditions: Francisella tularensis, read-out: Francisella tularensis MIC (μg/mL) LVS, 2-pyridones table
[10] = target: Francisella tularensis FabI (Francisella tularensis subsp. tularensis (strain SCHU S4 / Schu 4), UniProt Q5NGQ3); assay: biochemical
[11] = target: bpFabI (Burkholderia pseudomallei, UniProt A0A0H3HP34); assay: biochemical
[12] = tested on: Bt38; assay: microbe, parasite or virus in culture; assay type: cell-based; conditions: Burkholderia pseudomallei, read-out: Burkholderia pseudomallei MIC (μg/mL) Bt38
[13] = target: YpFabV (Yersinia pestis, UniProt Q8Z9U1); assay: biochemical
[14] = [S]/KS = 0.19, binds E-NAD+ binary complex, single point progress curve analysis, read-out: Ki^app
[15] = binds E-NAD+ binary complex, single point progress curve analysis, read-out: Ki
[16] = RN4220, S. aureus RN4220, read-out: MIC
[17] = Ki^app (nM), saFabI, [S]/KS = 2
[18] = Staphylococcus aureus Ki (in brackets under IC50), 2-pyridones table
[19] = RN4220, 2-pyridones table, read-out: Staphylococcus aureus MIC (μg/mL) RN4220

CCCCCCc1ccc(Oc2ccccc2)c(O)c1 [PT04, 5-hexyl-2-phenoxyphenol, reference compound]
Ki [1, 14]: 32.2 nM | Ki [1, 15]: 0.2 nM | MIC [2]: 14.8 µM (≈ 4 µg/mL) | decrease of bacterial burden in the infected thigh ([3]; 100 mg/kg dose, MRSA BAA1762, neutropenic mouse): 0.9 log cfu/g tissue | AUC(0-t) [4]: 11800 ng·h/mL | Cmax [4]: 5100 ng/mL | Tmax [4]: 1 h | half-life [4]: 4.5 h

Oc1ccccc1Oc1ccccc1 [PT51, reference compound]
MIC [5, 16]: 687 µM

Cc1ccc(Oc2ccccc2)c(O)c1 [PT53, reference compound]
MIC [5, 16]: 20 µM

Oc1cc(F)ccc1Oc1ccccc1 [PT55]
Ki [1, 14]: 92.6 nM | Ki [1, 15]: 1.1 nM | MIC [2]: 1.2 µM (≈ 0.245 µg/mL)

Cn1cc(Oc2ccc([N+](=O)[O-])cc2)c(=O)cc1CCl [PT151]
Mycobacterium tuberculosis enzyme, inhibition at 1 μM ([6]; at 1 μM, [E] = 50 nM): No

Cc1cc([N+](=O)[O-])ccc1Oc1cn(C)c(CCl)cc1=O [PT152]
IC50 [6]: 2250 nM | MIC ([7]; 4-pyridones table): 12.5 µg/mL (≈ 40.5 µM)

CCCCCCc1cc(=O)c(Oc2ccccc2C#N)cn1C [PT159]
Ki ([8]; Ki (nM), saFabI): 11 ± 0.9 nM | Ki [8, 17]: 41 ± 3.4 nM | Ki ([8]; Staphylococcus aureus Ki (nM), 4-pyridones table): 11 nM | IC50 [6]: 629 nM | MIC ([5]; RN4220, 4-pyridones table, read-out: Staphylococcus aureus MIC (μg/mL) RN4220): 4 µg/mL | MIC [5, 16]: 12.9 µM | MIC ([7]; 4-pyridones table): 50 µg/mL (≈ 161 µM)

CCCCCCc1cc(=O)c(Oc2cccnc2C#N)cn1C [PT167]
IC50 [6]: 979 ± 152 nM | MIC ([7]; 4-pyridones table): 100 µg/mL (≈ 321 µM)

CCCCCCc1cc(=O)c(Oc2ccccn2)cn1C [PT168]
IC50 [6]: 1780 ± 315 nM | MIC ([7]; 4-pyridones table): 50 µg/mL (≈ 175 µM)

CCCCCCc1cc(=O)c(Oc2cccnc2N)cn1C [PT169]
IC50 [6]: 379 ± 41 nM | MIC ([7]; 4-pyridones table): 12.5 µg/mL (≈ 41.5 µM)

Cc1ccn(Cc2ccccc2Cl)c(=O)c1 [PT170]
IC50 [8]: > 1000 nM | Ki ([8]; Ki (nM), saFabI): 229 ± 5.2 nM | Ki [8, 17]: 849 ± 19.3 nM | Ki [8, 18]: 229 ± 5.2 nM | IC50 [6]: > 1700 nM | MIC [5, 19]: > 500 µg/mL | MIC [5, 16]: > 500 µM | MIC [9]: 50 µg/mL (≈ 214 µM) | MIC ([7]; 2-pyridones table): > 50 µg/mL | IC50 [10]: 202 ± 17 nM | IC50 [11]: > 1000 nM

CCCCCCc1ccn(Cc2ccccc2C)c(=O)c1 [PT171]
IC50 [8]: 150 ± 22 nM | Ki ([8]; Ki (nM), saFabI): 11.9 ± 1.8 nM | Ki [8, 17]: 44.3 ± 6.6 nM | Ki [8, 18]: 11.9 ± 1.8 nM | Ki ([1]; Ki^app (nM), [S]/KS = 0.19): 116 ± 4.6 nM | IC50 [6]: 130 ± 21 nM | MIC [5, 19]: 5 µg/mL | MIC [9]: 3.65 µg/mL (≈ 12.9 µM) | MIC ([7]; 2-pyridones table): 25 µg/mL (≈ 88.2 µM) | MIC [12]: 154 µg/mL (≈ 542 µM) | IC50 [10]: 83 ± 32 nM | IC50 [11]: ~400 nM

CCCCCCc1ccn(Cc2ccccc2Cl)c(=O)c1 [PT172]
IC50 [8]: 379 ± 88 nM | Ki ([8]; Ki (nM), saFabI): 11 ± 0.4 nM | Ki [8, 17]: 40.7 ± 1.3 nM | Ki [8, 18]: 11 ± 0.4 nM | IC50 [6]: 240 ± 44 nM | Staphylococcus aureus MIC (μg/mL) RN4220 [5]: 8 µg/mL | MIC [5, 19]: 5 µg/mL | MIC [5, 16]: 26.3 µM | MIC [9]: 4.04 µg/mL (≈ 13.3 µM) | MIC ([7]; 2-pyridones table): 25 µg/mL (≈ 82.3 µM) | MIC [12]: 250 µg/mL (≈ 823 µM) | IC50 [10]: 61 ± 13 nM | IC50 [11]: 260 ± 9.3 nM

CCCCCCc1ccn(Cc2cccc(N)c2C)c(=O)c1 [PT173]
IC50 [8]: 68 ± 14 nM | Ki ([8]; Ki (nM), saFabI): 2 ± 0.4 nM | Ki ([8]; Ki, saFabI): 1.97 nM | Ki [8, 17]: 7.3 ± 1.5 nM | Ki [8, 18]: 2 ± 0.4 nM | Ki ([1]; Ki^app (nM), [S]/KS = 0.19): 246 ± 10.1 nM | IC50 [6]: > 3200 nM | MIC [5, 16]: 6.7 µM | Escherichia coli MIC (μg/mL) MG1655 ΔacrAB ([2]; 2-pyridones table): >425 µg/mL | MIC [2]: > 425 µM | MIC [9]: 3.57 µg/mL (≈ 12 µM) | MIC ([7]; 2-pyridones table): 50 µg/mL (≈ 168 µM) | MIC [12]: 36.3 µg/mL (≈ 122 µM) | IC50 [10]: 83 ± 15 nM | IC50 [11]: 460 ± 10 nM

CCCCCCc1ccn(Cc2cccc([N+](=O)[O-])c2C)c(=O)c1 [PT174]
IC50 [8]: 248 ± 20 nM | MIC [5, 19]: 50 µg/mL | MIC [9]: 2.12 µg/mL (≈ 6.46 µM) | MIC [12]: 250 µg/mL (≈ 761 µM) | IC50 [10]: 85 ± 11 nM

CCCCCCc1ccn(Cc2cccnc2F)c(=O)c1 [PT175]
IC50 [8]: > 1000 nM | IC50 [6]: > 4000 nM | MIC [5, 19]: 50 µg/mL | MIC [9]: 14 µg/mL (≈ 48.4 µM) | MIC ([7]; 2-pyridones table): 50 µg/mL (≈ 173 µM) | MIC [12]: 78.3 µg/mL (≈ 272 µM) | IC50 [11]: > 1000 nM

CCCCCCc1ccn(Cc2ccccc2)c(=O)c1 [PT179]
IC50 [8]: 192 ± 30 nM | Ki ([8]; Ki (nM), saFabI): 19 ± 2.7 nM | Ki [8, 17]: 70.4 ± 9.8 nM | Ki [8, 18]: 19 ± 2.7 nM | MIC [5, 19]: 32 µg/mL | MIC [5, 16]: 119 µM

CCCCCCc1cc(=O)c(Oc2cccnc2F)cn1C [PT190]
IC50 [6]: 641 ± 55 nM | MIC ([7]; 4-pyridones table): 25 µg/mL (≈ 82.1 µM)

CCCCCCc1ccc(Oc2ccccc2)c(=O)[nH]1 [PT191]
IC50 [8]: > 2000 nM | Ki ([8]; Ki (nM), saFabI): 196 ± 22.2 nM | Ki [8, 17]: 729 ± 82.4 nM | Ki [8, 18]: 196 ± 22.2 nM | Mycobacterium tuberculosis enzyme, inhibition ([6]; [I] = 2 μM, [E] = 100 nM): 10% | IC50 [10]: > 10000 nM | IC50 [11]: > 3000 nM

CCCCCCc1ccc(Oc2ccccc2C)c(=O)[nH]1 [PT192]
Staphylococcus aureus MIC (μg/mL) RN4220 [5]: No | MIC [9]: 9.2 µg/mL (≈ 32.2 µM) | MIC [12]: 8.35 µg/mL (≈ 29.3 µM)

CCCCCCc1ccn(Cc2ccccc2C#N)c(=O)c1 [PT420]
IC50 [8]: 746 ± 165 nM | Ki ([8]; Ki (nM), saFabI): 29.6 ± 9.5 nM | Ki [8, 17]: 110 ± 1.7 nM | Ki [8, 18]: 29.6 ± 0.5 nM | MIC [5, 19]: 32 µg/mL | MIC [5, 16]: 109 µM | MIC [9]: 10.2 µg/mL (≈ 34.7 µM) | MIC [12]: 44.4 µg/mL (≈ 151 µM) | IC50 [10]: 727 ± 84 nM

CCCCCCc1ccn(Cc2cccc(F)c2)c(=O)c1 [PT421]
IC50 [8]: 297 ± 64 nM | MIC [5, 19]: 2 µg/mL

CCCCCCc1ccn(Cc2ccc(F)cc2)c(=O)c1 [PT422]
IC50 [8]: 222 ± 22 nM | MIC [5, 19]: 1 µg/mL

CCCCCCc1ccn(Cc2ccccc2F)c(=O)c1 [PT423]
IC50 [8]: 165 ± 22 nM | MIC [5, 19]: 16 µg/mL

CCCCCCc1ccn(Cc2ccc([N+](=O)[O-])cc2)c(=O)c1 [PT424]
IC50 [8]: 1500 ± 200 nM | Ki [13]: 11000 nM

CCCCCCc1ccn(Cc2ccc(N)cc2)c(=O)c1 [PT425]
IC50 [8]: 380 ± 20 nM | MIC [5, 19]: ~32 µg/mL

CCCCCCc1ccn(Cc2ccc(Cl)cc2)c(=O)c1 [PT426]
IC50 [8]: 185 ± 18 nM | MIC [5, 19]: ~32 µg/mL

CCCCCCc1ccn(Cc2ccc(C(C)=O)cc2)c(=O)c1 [PT427]
IC50 [8]: 394 ± 40 nM | MIC [5, 19]: > 128 µg/mL

Cc1onc(-c2ccccc2)c1C(=O)N[C@@H]1C(=O)N2[C@@H]1SC(C)(C)[C@@H]2C(=O)O [oxacillin]
in vivo antibacterial efficacy ([3]; MRSA BAA1762, neutropenic mouse thigh, FIG. 8): no in vivo antibacterial efficacy

Source: patent US10071965B2, “Pyridone FabI inhibitors and uses thereof” (priority 2015, dated 2018)
